Reference: patent US20170044521A1, “BIOMASS EXTRACTS AND METHODS THEREOF” (Lakeview Nutrition LLC, priority 2014, published 2017)
Where two headings read alike, the source gives them in different places.

How the values were obtained:
[1] = mouse, in vivo, po
Description: (§1) Thirty-six male CD-1 mice (22-24 g) were purchased from Charles River Labs (Wilmington, Mass.). Before the study, they were allowed acclimation for at least 3 days in an SPF facility. Animal housing, handling and procedures were conducted under the protocols or guidelines approved by the Institutional Animal Care and Use Committee (IACUC) of Cephrim Biosciences, Inc. (Woburn, Mass.). Three mice were housed in each cage. The temperature, humidity and light/dark cycle were well maintained at 68-76° F., 40-60% relative humidity, with a 12 h light/dark cycle. Mice were allowed free access to water and food.
(§2) On the first day of the study, the mice were randomly assigned into two groups, alcohol extract (AE, of DDGS) group and oil extract (OE, of DDGS) group. Each group of mice was further divided into 6 subgroups, representing 6 time points (i.e., 0 hr, 0.5 hr, 1.0 hr, 3.0 hr, 7.0 hr and 24 hr). Each of two extracts was given to each group of mice by oral gavage at the dosage of 2 mL for AE and 2 mL for OE. The time of dosing was set as the Time Zero. Blood samples were collected by cardiac puncture and were immediately transferred to a set of heparinized tubes.
(§3) Blood samples at Time-0 hr were collected right before dosing. And at each of rest 5 time points the Time-0.5 hr, -1.0 hr, -3.0 hr, -7.0 hr and −24 hr after the extracts were given, blood samples were collected from each subgroup (n=3). All blood samples were placed on ice after their collection and were spun at 14000 rpm/min. The top plasma were transferred into new pre-labeled tubes and the samples were stored at −70° C. until analysis.
(§4) Mice plasmas (150 pt) were mixed with 600 pt of hexane and shaken at 200 rpm for 10 min. The mixtures were centrifuged at 14,000 rpm for 6 min. The supernatant was evaporated to dryness under nitrogen and replaced with 100 pt of methanol. […]
(§5) Compounds were separated on a C30 reverse-phase column (250×4.6 mm, 5 um) at a flow rate of 1 mL/min. […] The detection was conducted in a fluorescence detector with excitation of 292 nm and emission of 336 nm. […]

[2] = Bioavailability study: absorption of DDGS phytochemicals in plasma of mice after oral gavage of DDGS extracts; conditions: oral gavage of 2 mL alcohol extract (AE) or oil extract (OE) of DDGS, plasma sampled at 0, 0.5, 1.0, 3.0, 7.0 and 24 hr, HPLC
Description: as §1, §2, §3, §4, §5

Cc1c(C)c2c(c(C)c1O)CC[C@@](C)(CCC[C@H](C)CCC[C@H](C)CCCC(C)C)O2 [alpha-tocopherol]
time of maximal absorption in plasma of mice after gastric infusion [1]: 3 h

CC(C)=CCC/C(C)=C/CC/C(C)=C/CC[C@]1(C)CCc2cc(O)cc(C)c2O1 [delta-tocotrienol]
time of maximal absorption in plasma of mice after gastric infusion [1]: 24 h

Cc1c(O)cc2c(c1C)O[C@](C)(CCC[C@H](C)CCC[C@H](C)CCCC(C)C)CC2 [gamma-tocopherol]
time of maximal absorption in plasma of mice after gastric infusion [2]: 3 h
